Patent publication US10385022B2, “3-amino-pyridines as GPBAR1 agonists” (HOFFMANN-LA ROCHE INC., priority 2011, dated 2019)

What follows are compounds tested against human GPBAR1 receptor (Homo sapiens (Human), UniProt Q8TDU6) (assay: functional cAMP assay in CHO-dhfr(minus) cells expressing human GPBAR1 receptors). Details: CHO-dhfr(minus) cells expressing human GPBAR1, 30 min at 30° C.
Type: cell-based
Protocol: The final clone was verified by DNA sequence analysis. The plasmid was transfected into CHO cells deficient in dihydrofolate reductase activity (CHO-dhfr-) using Lipofectamine plus (Invitrogen). Clones were isolated in limited dilution conditions and identified by activities in the cAMP assay using lithocholic acid as agonist.
EC50 values were determined using Activity Base analysis (ID Business Solution, Limited). […] Specificity for GPBAR1 was tested in non-transfected CHO cells in the same assay as above.

Chain of human GPBAR1 receptor (Q8TDU6 whole entry): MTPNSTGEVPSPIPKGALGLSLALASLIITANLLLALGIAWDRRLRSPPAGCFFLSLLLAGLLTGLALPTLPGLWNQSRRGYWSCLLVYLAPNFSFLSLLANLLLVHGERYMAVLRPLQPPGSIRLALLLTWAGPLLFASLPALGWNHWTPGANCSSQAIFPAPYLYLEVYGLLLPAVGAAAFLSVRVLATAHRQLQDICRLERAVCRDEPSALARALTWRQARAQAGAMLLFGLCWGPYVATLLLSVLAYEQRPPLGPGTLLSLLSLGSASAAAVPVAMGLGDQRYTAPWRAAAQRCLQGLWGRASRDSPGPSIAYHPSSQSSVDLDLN

Row | SMILES | EC50 [nM]
1 | COc1cc(F)c(F)cc1-c1ccncc1N(CC(F)(F)F)C(=O)c1cc(F)cc(C(F)(F)F)c1 [Example 132, N-[4-(4,5-Difluoro-2-methoxy-phenyl)-pyridin-3-yl]-3-fluoro-N-(2,2,2-trifluoro-ethyl)-5-trifluoromethyl-benzamide] | 1330
2 | COc1cc(F)ccc1-c1ccncc1N(C)C(=O)c1cc(C(F)(F)F)nc(S(C)(=O)=O)c1 [Example 221, N-[4-(4-Fluoro-2-methoxy-phenyl)-pyridin-3-yl]-2-methanesulfonyl-N-methyl-6-trifluoro-methyl-isonicotinamide] | 59
3 | COc1cc(F)ccc1-c1ccncc1N(CC(F)(F)F)C(=O)c1cc(C(F)(F)F)cc(S(C)(=O)=O)c1 [Example 136, N-[4-(4-Fluoro-2-methoxy-phenyl)-pyridin-3-yl]-3-methanesulfonyl-N-(2,2,2-trifluoro-ethyl)-5-trifluoromethyl-benzamide] | 247
4 | CN(C(=O)c1cc(C(F)(F)F)cc(C(F)(F)F)c1)c1cnccc1-c1ccccc1C(F)(F)F [Example 28, N-Methyl-3,5-bis-trifluoromethyl-N-[4-(2-trifluoromethyl-phenyl)-pyridin-3-yl]-benzamide] | 863
5 | COC(=O)COc1cc(F)ccc1-c1ccncc1N(C)C(=O)c1cc(C(F)(F)F)cc(C(F)(F)F)c1 [Example 49, (2-{3-[(3,5-Bis-trifluoromethyl-benzoyl)-methyl-amino]-pyridin-4-yl}-5-fluoro-phenoxy)-acetic acid methyl ester] | 629
6 | COc1ncccc1-c1ccncc1N(CC(F)(F)F)C(=O)c1cc(C(F)(F)F)cc(S(C)(=O)=O)c1 [Example 142, 3-Methanesulfonyl-N-(2-methoxy-[3,4′]bipyridinyl-3′-yl)-N-(2,2,2-trifluoro-ethyl)-5-trifluoromethyl-benzamide] | 396
7 | CN(C(=O)c1cc(C(F)(F)F)cc(C(F)(F)F)c1)c1cnccc1-c1ccc(F)cc1Cl [Example 67, N-[4-(2-Chloro-4-fluoro-phenyl)-pyridin-3-yl]-N-methyl-3,5-bis-trifluoromethyl-benzamide] | 56
8 | Cc1ccccc1-c1ccncc1N(C)C(=O)c1cc(N2CCOCC2)cc(C(F)(F)F)c1 [Example 152, N-Methyl-3-morpholin-4-yl-N-(4-o-tolyl-pyridin-3-yl)-5-trifluoromethyl-benzamide] | 558
9 | NC(=O)CN(C(=O)c1cc(C(F)(F)F)nc(C(F)(F)F)c1)c1cnccc1-c1ccccc1F [Example 197, N-Carbamoylmethyl-N-[4-(2-fluoro-phenyl)-pyridin-3-yl]-2,6-bis-trifluoromethyl-isonicotinamide] | 105
10 | COc1cc(F)c(F)cc1-c1ccncc1N(C)C(=O)c1cc(C(F)(F)F)cc(S(C)(=O)=O)c1 [Example 137, N-[4-(4,5-Difluoro-2-methoxy-phenyl)-pyridin-3-yl]-3-methanesulfonyl-N-methyl-5-trifluoromethyl-benzamide] | 166
11 | CN(C)C(=O)CN(C(=O)c1cc(C(F)(F)F)cc(C(F)(F)F)c1)c1cnccc1-c1ccccc1Cl [Example 118, N-[4-(2-Chloro-phenyl)-pyridin-3-yl]-N-dimethylcarbamoylmethyl-3,5-bis-trifluoromethyl-benzamide] | 2470
12 | COc1cc(F)ccc1-c1cc(C)ncc1N(C)C(=O)c1cc(C(F)(F)F)cc(S(C)(=O)=O)c1 [Example 202, N-[4-(4-Fluoro-2-methoxy-phenyl)-6-methyl-pyridin-3-yl]-3-methanesulfonyl-N-methyl-5-trifluoromethyl-benzamide] | 157
13 | O=C(c1cc(C(F)(F)F)cc(C(F)(F)F)c1)N(CC(F)F)c1cnccc1-c1ccccc1Cl [Example 116, N-[4-(2-Chloro-phenyl)-pyridin-3-yl]-N-(2,2-difluoro-ethyl)-3,5-bis-trifluoromethyl-benzamide] | 88
14 | COc1cc(F)ccc1-c1ccnc(Cl)c1N(C)C(=O)c1cc(C(F)(F)F)cc(S(C)(=O)=O)c1 [Example 212, N-[2-Chloro-4-(4-fluoro-2-methoxy-phenyl)-pyridin-3-yl]-3-methanesulfonyl-N-methyl-5-trifluoromethyl-benzamide] | 75
15 | COc1cc(F)ccc1-c1ccncc1N(C)C(=O)c1cc(F)cc(C(F)(F)F)c1 [Example 129, 3-Fluoro-N-[4-(4-fluoro-2-methoxy-phenyl)-pyridin-3-yl]-N-methyl-5-trifluoromethyl-benzamide] | 76
16 | COc1cc(F)ccc1-c1ccncc1N(Cc1cc(C)on1)C(=O)c1cc(C(F)(F)F)cc(S(C)(=O)=O)c1 [Example 231, N-[4-(4-Fluoro-2-methoxy-phenyl)-pyridin-3-yl]-3-methanesulfonyl-N-(5-methyl-isoxazol-3-ylmethyl)-5-trifluoromethyl-benzamide] | 3500
17 | COc1cc(F)ccc1-c1ccncc1N(C)C(=O)c1cc(C(F)(F)F)cc(S(=O)(=O)CCNS(C)(=O)=O)c1 [Example 270, N-[4-(4-Fluoro-2-methoxy-phenyl)-pyridin-3-yl]-3-(2-methanesulfonylamino-ethanesulfonyl)-N-methyl-5-trifluoromethyl-benzamide] | 133

Row | SMILES | EC50 [nM]
18 | Cc1nn(C)c(C)c1-c1ccncc1N(C)C(=O)c1cc(C(F)(F)F)cc(C(F)(F)F)c1 [Example 208, N-Methyl-3,5-bis-trifluoromethyl-N-[4-(1,3,5-trimethyl-1H-pyrazol-4-yl)-pyridin-3-yl]-benzamide] | 2960
19 | COc1cccc(F)c1-c1ccncc1N(CC(N)=O)C(=O)c1cc(C(F)(F)F)nc(C(F)(F)F)c1 [Example 199, N-Carbamoylmethyl-N-[4-(2-fluoro-6-methoxy-phenyl)-pyridin-3-yl]-2,6-bis-trifluoromethyl-isonicotinamide] | 33
20 | COc1ncccc1-c1ccncc1N(CC(F)(F)F)C(=O)c1cc(C(F)(F)F)nc(C(F)(F)F)c1 [Example 145, N-(2-Methoxy-[3,4′]bipyridinyl-3′-yl)-N-(2,2,2-trifluoro-ethyl)-2,6-bis-trifluoromethyl-isonicotinamide] | 30
21 | O=C(c1cc(C(F)(F)F)nc(C(F)(F)F)c1)N(CC(F)(F)F)c1cnccc1-c1ccccc1F [Example 151, N-[4-(2-Fluoro-phenyl)-pyridin-3-yl]-N-(2,2,2-trifluoro-ethyl)-2,6-bis-trifluoromethyl-isonicotinamide] | 47
22 | CN(C(=O)c1cc(C(F)(F)F)cc(S(C)(=O)=O)c1)c1cnccc1-c1ccc(F)cc1OCc1ccccc1 [Example 267, N-[4-(2-Benzyloxy-4-fluoro-phenyl)-pyridin-3-yl]-3-methanesulfonyl-N-methyl-5-trifluoromethyl-benzamide] | 3460
23 | Cc1cccc(-c2ccncc2N(C)C(=O)c2cc(C(F)(F)F)cc(C(F)(F)F)c2)c1C [Example 105, N-[4-(2,3-Dimethyl-phenyl)-pyridin-3-yl]-N-methyl-3,5-bis-trifluoromethyl-benzamide] | 485
24 | Cc1cc(-c2ccccc2OCC2COC2)c(N(C)C(=O)c2cc(C(F)(F)F)cc(S(C)(=O)=O)c2)cn1 [Example 321, 3-Methanesulfonyl-N-methyl-N-{6-methyl-4-[2-(oxetan-3-ylmethoxy)-phenyl]-pyridin-3-yl}-5-trifluoromethyl-benzamide] | 1880
25 | CN(C(=O)c1cc(C(F)(F)F)cc(C(F)(F)F)c1)c1cnccc1-c1ccccc1OC(F)(F)F [Example 31, N-Methyl-N-[4-(2-trifluoromethoxy-phenyl)-pyridin-3-yl]-3,5-bis-trifluoromethyl-benzamide] | 29
26 | COC(=O)c1cc(C(=O)N(C)c2cnccc2-c2ccccc2Cl)cc(C(F)(F)F)c1 [Example 75, N-[4-(2-Chloro-phenyl)-pyridin-3-yl]-N-methyl-5-trifluoromethyl-isophthalamic acid methyl ester] | 452
27 | COc1ncccc1-c1ccncc1N(CC(N)=O)C(=O)c1cc(C(F)(F)F)cc(S(C)(=O)=O)c1 [Example 181, N-Carbamoylmethyl-3-methanesulfonyl-N-(2-methoxy-[3,4′]bipyridinyl-3′-yl)-5-trifluoromethyl-benzamide] | 2950
28 | COc1cc(F)ccc1-c1ccncc1N(C)C(=O)c1cc(C(F)(F)F)cc(S(=O)(=O)CCO)c1 [Example 218, N-[4-(4-Fluoro-2-methoxy-phenyl)-pyridin-3-yl]-3-(2-hydroxy-ethanesulfonyl)-N-methyl-5-trifluoromethyl-benzamide] | 73
29 | COc1cc(F)ccc1-c1ccncc1N(C)C(=O)c1cc(C(F)(F)F)cc(S(=O)(=O)N(C)C)c1 [Example 143, 3-Dimethylsulfamoyl-N-[4-(4-fluoro-2-methoxy-phenyl)-pyridin-3-yl]-N-methyl-5-trifluoromethyl-benzamide] | 12
30 | COc1cc(F)ccc1-c1ccncc1N(C)C(=O)c1cc(C(F)(F)F)cc(S(=O)(=O)N2CCOCC2)c1 [Example 256, N-[4-(4-Fluoro-2-methoxy-phenyl)-pyridin-3-yl]-N-methyl-3-(morpholine-4-sulfonyl)-5-trifluoromethyl-benzamide] | 20
31 | COc1ncc(F)cc1-c1ccncc1N(C)C(=O)c1cc(C(F)(F)F)cc(C(F)(F)F)c1 [Example 44, N-(5-Fluoro-2-methoxy-[3,4′]bipyridinyl-3′-yl)-N-methyl-3,5-bis-trifluoromethyl-benzamide] | 30
32 | COc1cc(F)ccc1-c1ccncc1N(C)C(=O)c1cc(C(F)(F)F)cc(S(=O)(=O)CCNS(N)(=O)=O)c1 [Example 269, N-[4-(4-fluoro-2-methoxyphenyl)pyridin-3-yl]-N-methyl-3-{[2-(sulfamoylamino)ethyl]-sulfonyl}-5-(trifluoromethyl)benzamide] | 94
33 | CCc1cc(-c2ccccc2C)c(N(C)C(=O)c2cc(C(F)(F)F)cc(C(F)(F)F)c2)cn1 [Example 220, N-(6-Ethyl-4-o-tolyl-pyridin-3-yl)-N-methyl-3,5-bis-trifluoromethyl-benzamide] | 1980
